Assay results reported in patent US20250312462A1, “PAK1 DEGRADERS AND METHODS OF USE THEREOF” (INSTITUTE FOR CANCER RESEARCH D/B/A THE RESEARCH INSTITUTE …, priority 2022, published 2025).

Experiments:
Assay in all cases: KINOMEscan
Details in all cases: read-out: Percent Control
PKNB(M. tuberculosis) = target: T1, PKNB(M. tuberculosis) (Mycobacterium tuberculosis, UniProt P9WI81); assay type: binding
T1 construct: purchased DiscoverX

PRP4 = target: T2, PRP4 (Homo sapiens, UniProt Q13523); assay type: binding
T2 construct: purchased DiscoverX

DAPK2 = DAPK2 (Homo sapiens, UniProt Q9UIK4)
Procedure: (§1) The kinase engagement assay (KINOMEscan®) was performed by DiscoverX assessing binding abilities toward a set of kinases.

CAMK2B = CAMK2B (Homo sapiens, UniProt Q13554)
CAMK2B, sequence (Q13554 whole entry): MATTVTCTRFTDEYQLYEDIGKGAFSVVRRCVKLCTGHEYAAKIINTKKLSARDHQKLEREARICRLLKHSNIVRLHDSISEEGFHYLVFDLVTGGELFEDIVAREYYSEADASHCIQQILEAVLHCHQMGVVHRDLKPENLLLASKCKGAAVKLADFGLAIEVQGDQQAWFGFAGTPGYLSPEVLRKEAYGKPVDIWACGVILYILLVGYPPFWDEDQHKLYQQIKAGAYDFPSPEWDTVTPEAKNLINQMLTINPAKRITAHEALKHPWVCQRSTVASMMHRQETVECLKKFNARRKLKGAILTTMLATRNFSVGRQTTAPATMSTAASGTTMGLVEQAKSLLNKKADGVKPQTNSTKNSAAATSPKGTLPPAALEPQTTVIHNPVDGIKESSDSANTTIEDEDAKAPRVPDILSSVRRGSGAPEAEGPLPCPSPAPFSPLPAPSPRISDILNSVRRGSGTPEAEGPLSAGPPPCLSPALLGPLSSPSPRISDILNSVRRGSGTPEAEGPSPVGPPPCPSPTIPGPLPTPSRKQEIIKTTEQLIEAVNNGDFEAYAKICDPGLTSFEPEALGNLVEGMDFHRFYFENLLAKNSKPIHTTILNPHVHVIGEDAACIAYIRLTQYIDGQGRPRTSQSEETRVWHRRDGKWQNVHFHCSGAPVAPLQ
Procedure: as §1

CAMK2G = CAMK2G (Homo sapiens, UniProt Q13555)
Procedure: as §1

CHEK1 = CHEK1 (Homo sapiens, UniProt O14757)
Procedure: as §1

ERK5 = ERK5 (Homo sapiens, UniProt Q13164)
ERK5, sequence (Q13164 whole entry): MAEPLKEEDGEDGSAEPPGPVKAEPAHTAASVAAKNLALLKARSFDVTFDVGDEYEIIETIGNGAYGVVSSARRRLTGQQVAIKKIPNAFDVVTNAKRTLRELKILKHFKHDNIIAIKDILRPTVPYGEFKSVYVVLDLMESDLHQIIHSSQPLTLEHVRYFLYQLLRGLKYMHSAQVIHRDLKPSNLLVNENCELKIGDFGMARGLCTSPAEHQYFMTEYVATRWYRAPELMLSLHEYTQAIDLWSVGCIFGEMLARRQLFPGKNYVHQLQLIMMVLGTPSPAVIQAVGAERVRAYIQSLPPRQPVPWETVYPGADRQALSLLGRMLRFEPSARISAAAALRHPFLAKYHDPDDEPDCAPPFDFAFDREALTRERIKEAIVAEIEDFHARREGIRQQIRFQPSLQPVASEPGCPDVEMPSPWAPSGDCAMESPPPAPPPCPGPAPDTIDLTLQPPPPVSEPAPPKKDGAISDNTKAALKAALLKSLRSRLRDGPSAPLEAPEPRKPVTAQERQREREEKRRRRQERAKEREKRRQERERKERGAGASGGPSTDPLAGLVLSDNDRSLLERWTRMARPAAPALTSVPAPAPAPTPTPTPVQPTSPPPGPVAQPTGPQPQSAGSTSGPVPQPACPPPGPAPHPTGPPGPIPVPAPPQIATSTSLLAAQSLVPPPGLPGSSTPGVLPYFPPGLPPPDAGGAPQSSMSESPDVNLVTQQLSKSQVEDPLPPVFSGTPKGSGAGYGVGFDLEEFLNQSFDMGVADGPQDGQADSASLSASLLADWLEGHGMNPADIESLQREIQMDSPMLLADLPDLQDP
Procedure: as §1

EGFR(S752-1759del) = EGFR(S752-1759del) (Homo sapiens, UniProt P00533, DEL752-759)
Procedure: as §1

MET = MET (Homo sapiens, UniProt P08581)
Procedure: as §1

CDK2 = CDK2 (Homo sapiens, UniProt P24941)
Procedure: as §1

ACVRL1 = ACVRL1 (Homo sapiens, UniProt P37023)
Procedure: as §1

BRK = BRK (Homo sapiens, UniProt Q13882)
BRK, sequence (Q13882 whole entry): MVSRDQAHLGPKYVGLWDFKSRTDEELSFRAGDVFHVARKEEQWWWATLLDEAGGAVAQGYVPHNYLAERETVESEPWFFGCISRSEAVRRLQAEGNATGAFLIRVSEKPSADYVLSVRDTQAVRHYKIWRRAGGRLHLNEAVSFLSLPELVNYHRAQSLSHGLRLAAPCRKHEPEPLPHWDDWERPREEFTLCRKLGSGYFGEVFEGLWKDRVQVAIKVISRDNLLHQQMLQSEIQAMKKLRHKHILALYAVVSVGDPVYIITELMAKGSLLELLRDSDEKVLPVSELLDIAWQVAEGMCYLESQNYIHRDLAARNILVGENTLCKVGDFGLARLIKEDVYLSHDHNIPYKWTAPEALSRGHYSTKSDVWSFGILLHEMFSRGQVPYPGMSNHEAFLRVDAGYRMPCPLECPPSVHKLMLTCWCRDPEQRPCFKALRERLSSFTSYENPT
Procedure: as §1

YANK3 = YANK3 (Homo sapiens, UniProt Q86UX6)
Procedure: as §1

BUB1 = BUB1 (Homo sapiens, UniProt O43683)
Procedure: as §1

NIK = NIK (Homo sapiens, UniProt Q99558)
Procedure: as §1

ASK2 = ASK2 (Homo sapiens, UniProt O95382)
Procedure: as §1

QSK = QSK (Homo sapiens, UniProt Q9Y2K2)
Procedure: as §1

NEK7 = NEK7 (Homo sapiens, UniProt Q8TDX7)
Procedure: as §1

AKT1 = AKT1 (Homo sapiens, UniProt P31749)
Procedure: as §1

JNK1 = JNK1 (Homo sapiens, UniProt P45983)
Procedure: as §1

MLK1 = MLK1 (Homo sapiens, UniProt P80192)
Procedure: as §1

JNK2 = JNK2 (Homo sapiens, UniProt P45984)
Procedure: as §1

CDK11 = CDK11 (Homo sapiens, UniProt Q9BWU1)
Procedure: as §1

ERK2 = ERK2 (Homo sapiens, UniProt P28482)
Procedure: as §1

FLT4 = FLT4 (Homo sapiens, UniProt P35916)
Procedure: as §1

MEK6 = MEK6 (Homo sapiens, UniProt P52564)
Procedure: as §1

MYO3B = MYO3B (Homo sapiens, UniProt Q8WXR4)
Procedure: as §1

HASPIN = HASPIN (Homo sapiens, UniProt Q8TF76)
Procedure: as §1

SRPK2 = SRPK2 (Homo sapiens, UniProt P78362)
Procedure: as §1

LIMK1 = LIMK1 (Homo sapiens, UniProt P53667)
LIMK1, sequence (P53667 whole entry): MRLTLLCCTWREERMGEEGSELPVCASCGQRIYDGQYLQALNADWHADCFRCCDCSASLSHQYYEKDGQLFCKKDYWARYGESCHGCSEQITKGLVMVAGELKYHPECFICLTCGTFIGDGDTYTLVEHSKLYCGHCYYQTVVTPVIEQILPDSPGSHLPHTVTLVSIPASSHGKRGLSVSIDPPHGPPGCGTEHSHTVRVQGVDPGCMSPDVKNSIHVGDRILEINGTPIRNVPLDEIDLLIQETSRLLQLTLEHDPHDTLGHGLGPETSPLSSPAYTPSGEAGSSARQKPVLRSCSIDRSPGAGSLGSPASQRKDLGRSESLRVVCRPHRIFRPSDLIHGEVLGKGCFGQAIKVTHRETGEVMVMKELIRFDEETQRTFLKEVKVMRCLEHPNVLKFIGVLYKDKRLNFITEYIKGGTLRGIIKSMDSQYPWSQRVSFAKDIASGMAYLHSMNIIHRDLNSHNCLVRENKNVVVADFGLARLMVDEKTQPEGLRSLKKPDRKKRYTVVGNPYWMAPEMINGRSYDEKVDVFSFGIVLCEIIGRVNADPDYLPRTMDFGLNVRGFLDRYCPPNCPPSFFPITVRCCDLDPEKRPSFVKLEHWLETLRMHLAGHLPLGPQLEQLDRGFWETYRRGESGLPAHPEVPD
Procedure: as §1

FGFR1 = FGFR1 (Homo sapiens, UniProt P11362)
Procedure: as §1

CDKL1 = CDKL1 (Homo sapiens, UniProt Q00532)
Procedure: as §1

p38-gamma = p38-gamma (Homo sapiens, UniProt P53778)
Procedure: as §1

EGFR(E746-A750del) = EGFR(E746-A750del) (Homo sapiens, UniProt P00533, DEL746-750)
Procedure: as §1

[1] = target: JAK1(JH2domain-pseudokinase) (Homo sapiens, UniProt P23458)
Procedure: as §1

PAK3 = PAK3 (Homo sapiens, UniProt O75914)
Procedure: as §1

PIK3CA(Q546K) = PIK3CA(Q546K) (Homo sapiens, UniProt P42336, Q546K)
PIK3CA(Q546K), sequence (P42336 whole entry Q546K): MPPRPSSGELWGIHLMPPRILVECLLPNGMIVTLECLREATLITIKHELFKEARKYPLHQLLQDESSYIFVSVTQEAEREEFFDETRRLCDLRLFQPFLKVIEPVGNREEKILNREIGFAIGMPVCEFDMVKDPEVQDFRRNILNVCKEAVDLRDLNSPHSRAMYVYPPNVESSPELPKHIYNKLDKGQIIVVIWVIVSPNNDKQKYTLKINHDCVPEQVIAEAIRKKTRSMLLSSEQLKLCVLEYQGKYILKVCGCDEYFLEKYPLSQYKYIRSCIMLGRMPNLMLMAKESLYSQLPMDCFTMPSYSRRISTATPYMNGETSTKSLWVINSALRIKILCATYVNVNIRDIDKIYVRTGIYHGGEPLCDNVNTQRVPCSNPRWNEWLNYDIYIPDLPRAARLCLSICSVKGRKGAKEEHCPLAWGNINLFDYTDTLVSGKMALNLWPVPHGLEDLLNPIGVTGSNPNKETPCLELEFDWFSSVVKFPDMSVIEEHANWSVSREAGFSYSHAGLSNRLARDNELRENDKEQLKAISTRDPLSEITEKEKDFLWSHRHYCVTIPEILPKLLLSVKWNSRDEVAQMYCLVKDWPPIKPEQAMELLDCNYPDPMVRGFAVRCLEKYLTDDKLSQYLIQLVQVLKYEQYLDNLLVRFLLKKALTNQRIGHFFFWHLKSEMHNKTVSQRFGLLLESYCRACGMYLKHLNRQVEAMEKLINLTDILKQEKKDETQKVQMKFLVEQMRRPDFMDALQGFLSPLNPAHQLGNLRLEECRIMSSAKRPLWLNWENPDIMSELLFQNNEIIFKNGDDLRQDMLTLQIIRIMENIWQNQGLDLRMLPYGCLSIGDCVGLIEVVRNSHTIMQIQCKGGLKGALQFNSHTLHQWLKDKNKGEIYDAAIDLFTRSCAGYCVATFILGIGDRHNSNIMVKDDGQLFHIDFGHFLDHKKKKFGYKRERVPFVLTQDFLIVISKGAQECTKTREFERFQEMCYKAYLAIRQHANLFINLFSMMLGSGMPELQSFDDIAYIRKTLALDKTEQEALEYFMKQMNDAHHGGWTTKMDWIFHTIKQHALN
Procedure: as §1

PLK2 = PLK2 (Homo sapiens, UniProt Q9NYY3)
PLK2, sequence (Q9NYY3 whole entry): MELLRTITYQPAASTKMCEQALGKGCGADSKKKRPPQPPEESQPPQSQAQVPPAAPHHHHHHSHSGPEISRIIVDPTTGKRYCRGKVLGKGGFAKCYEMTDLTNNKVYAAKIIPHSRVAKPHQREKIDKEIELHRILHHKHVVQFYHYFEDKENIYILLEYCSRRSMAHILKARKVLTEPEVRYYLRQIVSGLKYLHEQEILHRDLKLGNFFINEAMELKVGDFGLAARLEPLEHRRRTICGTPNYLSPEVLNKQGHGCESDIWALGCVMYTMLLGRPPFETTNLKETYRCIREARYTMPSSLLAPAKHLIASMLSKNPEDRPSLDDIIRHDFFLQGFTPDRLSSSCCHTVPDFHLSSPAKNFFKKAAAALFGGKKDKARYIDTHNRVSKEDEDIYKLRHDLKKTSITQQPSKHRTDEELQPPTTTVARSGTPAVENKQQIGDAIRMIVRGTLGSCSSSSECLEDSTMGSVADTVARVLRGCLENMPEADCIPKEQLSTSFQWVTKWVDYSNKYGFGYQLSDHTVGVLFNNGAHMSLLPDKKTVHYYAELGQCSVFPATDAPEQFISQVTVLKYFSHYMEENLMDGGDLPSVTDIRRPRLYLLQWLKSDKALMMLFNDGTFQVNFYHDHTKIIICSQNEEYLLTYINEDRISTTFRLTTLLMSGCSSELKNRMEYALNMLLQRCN
Procedure: as §1

T1 sequence (P9WI81 whole entry): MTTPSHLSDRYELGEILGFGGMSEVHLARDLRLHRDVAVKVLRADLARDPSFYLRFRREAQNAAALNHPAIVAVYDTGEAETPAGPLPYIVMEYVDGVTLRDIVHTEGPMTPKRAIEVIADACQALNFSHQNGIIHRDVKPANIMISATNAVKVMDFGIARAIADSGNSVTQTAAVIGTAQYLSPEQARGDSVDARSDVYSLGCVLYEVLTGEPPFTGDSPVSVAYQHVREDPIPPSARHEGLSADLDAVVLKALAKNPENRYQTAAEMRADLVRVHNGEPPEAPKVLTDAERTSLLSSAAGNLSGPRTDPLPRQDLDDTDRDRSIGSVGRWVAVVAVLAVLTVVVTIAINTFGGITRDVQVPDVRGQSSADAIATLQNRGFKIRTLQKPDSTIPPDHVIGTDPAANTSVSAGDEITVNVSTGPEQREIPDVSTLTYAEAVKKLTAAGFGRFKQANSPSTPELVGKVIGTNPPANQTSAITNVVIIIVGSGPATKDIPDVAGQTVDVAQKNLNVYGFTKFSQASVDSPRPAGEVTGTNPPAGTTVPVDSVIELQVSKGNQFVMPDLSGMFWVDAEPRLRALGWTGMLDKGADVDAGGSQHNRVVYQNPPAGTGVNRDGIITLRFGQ

O=C1CCC(N2C(=O)c3cccc(NCCCCCCCCNC(=O)N4CC[C@H](NC5=Nc6cc(F)ccc6N(CC(F)F)c6ccc(Cl)cc65)C4)c3C2=O)C(=O)N1 (stereo partly drawn) [BJG-05-039, (3S)-3-((2-Chloro-5-(2,2-difluoroethyl)-8-fluoro-5H-dibenzo[b,e][1,4]diazepin-11-yl)amino)-N-(8-((2-(2,6-dioxopiperidin-3-yl)-1,3-dioxoisoindolin-4-yl)amino)octyl)pyrrolidine-1-carboxamide]
remaining binding at 10 µM (PKNB(M. tuberculosis)): 72% | remaining binding at 10 µM (PRP4): 97% | remaining binding at 10 µM (DAPK2): 41% | remaining binding at 10 µM (CAMK2B): 46% | remaining binding at 10 µM (CAMK2G): 51% | remaining binding at 10 µM (CHEK1): 57% | remaining binding at 10 µM (ERK5): 57% | remaining binding at 10 µM (EGFR(S752-1759del)): 67% | remaining binding at 10 µM (MET): 68% | remaining binding at 10 µM (CDK2): 69% | remaining binding at 10 µM (ACVRL1): 71% | remaining binding at 10 µM (BRK): 72% | remaining binding at 10 µM (YANK3): 72% | remaining binding at 10 µM (BUB1): 73% | remaining binding at 10 µM (NIK): 76% | remaining binding at 10 µM (ASK2): 78% | remaining binding at 10 µM (QSK): 78% | remaining binding at 10 µM (NEK7): 79% | remaining binding at 10 µM (AKT1): 83% | remaining binding at 10 µM (JNK1): 83% | remaining binding at 10 µM (MLK1): 83% | remaining binding at 10 µM (JNK2): 84% | remaining binding at 10 µM (CDK11): 85% | remaining binding at 10 µM (ERK2): 85% | remaining binding at 10 µM (FLT4): 86% | remaining binding at 10 µM (MEK6): 86% | remaining binding at 10 µM (MYO3B): 88% | remaining binding at 10 µM (HASPIN): 90% | remaining binding at 10 µM (SRPK2): 91% | remaining binding at 10 µM (LIMK1): 94% | remaining binding at 10 µM (FGFR1): 97% | remaining binding at 10 µM (CDKL1): 99% | remaining binding at 10 µM (p38-gamma): 99% | remaining binding at 10 µM (EGFR(E746-A750del)): 100% | remaining binding at 10 µM [1]: 100% | remaining binding at 10 µM (PAK3): 100% | remaining binding at 10 µM (PIK3CA(Q546K)): 100% | remaining binding at 10 µM (PLK2): 100%
